Measurements published in patent publication US7973181B2, “Hydroxamic acid derivatives as inhibitors of HDAC enzymatic activity” (Chroma Therapeutics Ltd., priority 2005, dated 2011).

What was measured:
U937 = assay: Cell inhibition assay (SRB cell viability), U937; assay type: cell-based; conditions: U937 cells
Description: (§1) The corresponding cancer cell lines (Hela, U937 and HUT) growing in log phase were harvested and seeded at 1000 cells/well (200 ul final volume) into 96-well tissue culture plates. Following 24 h of cell growth cells were treated with compounds (final concentration of 20 uM). Plates were then re-incubated for a further 72 h before a sulphorhodamine B (SRB) cell viability assay was conducted according to Skehan 1990 J Natl Canc Inst 82, 1107-1112.
(§2) Data were expressed as a percentage inhibition of the control, measured in the absence of inhibitor, as follows: — % inhibition=100−((S^i/S^o)×100) where S^i is the signal in the presence of inhibitor and S^o is the signal in the presence of DMSO.
(§3) IC50 values were determined by non-linear regression analysis, after fitting the results of eight data points to the equation for sigmoidal dose response with variable slope (% activity against log concentration of compound), using Graphpad Prism software.
(§4) Results of testing the compounds of the examples in this assay are given in the third- fifth columns of Table 1.

HUT = assay: Cell inhibition assay (SRB cell viability), HUT; assay type: cell-based
Description: as §1, §2, §3, §4

Hela = assay: Cell inhibition assay (SRB cell viability), Hela; assay type: cell-based; conditions: 72 h, Hela cells
Description: as §1, §2, §3, §4

[1] = biological target: histone deacetylase activity (HeLa nuclear extract); assay: HDAC fluorescent activity assay (Biomol Fluor de Lys), HeLa nuclear extract; assay type: biochemical; conditions: Fluor de Lys substrate
Description: The ability of compounds to inhibit histone deacetylase activities was measured using the commercially available HDAC fluorescent activity assay from Biomol. In brief, the Fluor de Lys™ substrate, a lysine with an epsilon-amino acetylation, is incubated with the source of histone deacetylase activity (HeLa nuclear extract) in the presence or absence of inhibitor.
Deacetylation of the substrate sensitises the substrate to Fluor de Lys™ developer, which generates a fluorophore. Thus, incubation of the substrate with a source of HDAC activity results in an increase in signal that is diminished in the presence of an HDAC inhibitor.
Data are expressed as a percentage of the control, measured in the absence of inhibitor, with background signal being subtracted from all samples, as follows: — % activity=((S^i−B)/(S^o−B))×100 where S^i is the signal in the presence of substrate, enzyme and inhibitor, S^o is the signal in the presence of substrate, enzyme and the vehicle in which the inhibitor is dissolved, and B is the background signal measured in the absence of enzyme.
as §3
Histone deacetylase activity from crude nuclear extract derived from HeLa cells was used for screening. The preparation, purchased from 4C (Seneffe, Belgium), was prepared from HeLa cells harvested whilst in exponential growth phase. The nuclear extract is prepared according to Dignam JD1983 Nucl. Acid. Res. 11, 1475-1489, snap frozen in liquid nitrogen and stored at −80° C. The final buffer composition was 20 mM Hepes, 100 mM KCl, 0.2 mM EDTA, 0.5 mM DTT, 0.2 mM PMSF and 20% (v/v) glycerol.
Results of testing the compounds of the examples in this assay are given in the second column of Table 1 below.

| Compound | IC50 (U937; Homo sapiens, U-937, 72 h) | IC50 (Hela; Homo sapiens, HeLa) | IC50 [1] | IC50 (U937; 72 h) | IC50 (Hela) | IC50 (HUT; 72 h, HUT cells) | IC50 (HUT; HUT cells, 72 h) |
| --- | --- | --- | --- | --- | --- | --- | --- |
| CC(=O)N[C@@H](Cc1ccc(NC(=O)CCCCCCC(=O)NO)cc1)C(=O)OC1CCCC1 [Example 1, (S)-2-Acetylamino-3-[4-(7-hydroxycarbamoyl-heptanoylamino)-phenyl]-propionic acid cyclopentyl ester] | 330 to 3300 nM | > 3300 nM | 101 to 1000 nM | – | – | 330 to 3300 nM | – |
| CC(=O)N[C@@H](Cc1ccc(NC(=O)CCCCCCC(=O)NO)cc1)C(=O)O [Example 2, (S)-2-Acetylamino-3-[4-(7-hydroxycarbamoyl-heptanoylamino)-phenyl]-propionic acid] | > 3300 nM | > 3300 nM | 101 to 1000 nM | – | – | > 3300 nM | – |
| CC(=O)N[C@H](Cc1ccc(NC(=O)CCCCCCC(=O)NO)cc1)C(=O)OC1CCCC1 [Example 3, (R)-2-Acetylamino-3-[4-(7-hydroxycarbamoyl-heptanoylamino)-phenyl]-propionic acid cyclopentyl ester] | > 3300 nM | > 3300 nM | 101 to 1000 nM | – | – | 330 to 3300 nM | – |
| CC(=O)N[C@H](Cc1ccc(NC(=O)CCCCCCC(=O)NO)cc1)C(=O)O [Example 4, (R)-2-Acetylamino-3-[4(7-hydroxycarbamoyl-heptanoylamino)-phenyl]-propionic acid] | > 3300 nM | > 3300 nM | > 1000 nM | – | – | > 3300 nM | – |
| N[C@@H](CCOc1cccc(NC(=O)CCCCCCC(=O)NO)c1)C(=O)OC1CCCC1 [Example 5, (S)-2-Amino-4-[3-(7-hydroxycarbamoyl-heptanoylamino)-phenoxy]-butyric acid cyclopentyl ester] | 330 to 3300 nM | 330 to 3300 nM | < 100 nM | – | – | 330 to 3300 nM | – |
| N[C@@H](CCOc1cccc(NC(=O)CCCCCCC(=O)NO)c1)C(=O)O [Example 6, (S)-2-Amino-4-[3-(7-hydroxycarbamoyl-heptanoylamino)-phenoxy]-butyric acid] | 330 to 3300 nM | > 3300 nM | 101 to 1000 nM | – | – | 330 to 3300 nM | – |
| N[C@@H](CCOc1ccc(NC(=O)CCCCCCC(=O)NO)cc1)C(=O)OC1CCCC1 [Example 7, (S)-2-Amino-4-[4-(7-hydroxycarbamoyl-heptanoylamino)-phenoxy]-butyric acid cyclopentyl ester] | 330 to 3300 nM | 330 to 3300 nM | 101 to 1000 nM | – | – | 330 to 3300 nM | – |
| N[C@@H](CCOc1ccc(CNCc2ccc3cc(C(=O)NO)sc3c2)cc1)C(=O)OC1CCCC1 [Example 9, (S)-2-Amino-4-(4-{[(2-hydroxycarbamoyl-benzo[b]thiophen-6-ylmethyl)-amino]-methyl}-phenoxy)-butyric acid cyclopentyl ester] | < 330 nM | < 330 nM | < 100 nM | – | – | < 330 nM | – |

Now from value to compound, other results behind:

| IC50 (U937; Homo sapiens, U-937, 72 h) | IC50 (Hela; Homo sapiens, HeLa) | IC50 [1] | IC50 (U937; 72 h) | IC50 (Hela) | Compound | IC50 (HUT; 72 h, HUT cells) | IC50 (HUT; HUT cells, 72 h) |
| --- | --- | --- | --- | --- | --- | --- | --- |
| < 330 nM | < 330 nM | < 100 nM | – | – | N[C@@H](CCCOc1ccc(CNCc2ccc3cc(C(=O)NO)sc3c2)cc1)C(=O)OC1CCCC1 [Example 11, (S)-2-Amino-5-(4-{[(2-hydroxycarbamoyl-benzo[b]thiophen-6-ylmethyl)-amino]-methyl}-phenoxy)-pentanoic acid cyclopentyl ester] | < 330 nM | – |
| < 330 nM | < 330 nM | < 100 nM | – | – | N[C@H](CCOc1ccc(CNCc2ccc3cc(C(=O)NO)sc3c2)cc1)C(=O)OC1CCCC1 [Example 13, (R)-2-Amino-4-(4-{[(2-hydroxycarbamoyl-benzo[b]thiophen-6-ylmethyl)-amino]-methyl}phenoxy)-butyric acid cyclopentyl ester] | < 330 nM | – |
| < 330 nM | 330 to 3300 nM | < 100 nM | – | – | N[C@H](CCCOc1ccc(CNCc2ccc3cc(C(=O)NO)sc3c2)cc1)C(=O)OC1CCCC1 [Example 15, (R)-2-Amino-5-(4-{[(2-hydroxycarbamoyl-benzo[b]thiophen-6-ylmethyl)-amino]-methyl}-phenoxy)-pentanoic acid cyclopentyl ester] | < 330 nM | – |
| – | – | < 100 nM | 330 to 3300 nM | 330 to 3300 nM | N[C@@H](CCCOc1ccc(CNCc2ccc3cc(C(=O)NO)sc3c2)cc1)C(=O)OC1CCCC1 [Example 17, (S)-2-Amino-5-(4-{[(2-hydroxycarbamoyl-benzo[b]thiophen-6-ylmethyl)-amino]-methyl}-phenoxy)-pentanoic acid cyclopentyl ester] | – | 330 to 3300 nM |
| 330 to 3300 nM | 330 to 3300 nM | < 100 nM | – | – | COc1cc(CNCc2ccc3cc(C(=O)NO)sc3c2)ccc1OCCC[C@H](N)C(=O)OC1CCCC1 [Example 19, (S)-2-Amino-5-(4-{[(2-hydroxycarbamoyl-benzo[b]thiophen-6-ylmethyl)-amino]-methyl}-2-methoxyphenoxy)-pentanoic acid cyclopentyl ester] | 330 to 3300 nM | – |
| 330 to 3300 nM | 330 to 3300 nM | < 100 nM | – | – | CC(=O)N[C@@H](CCCOc1ccc(CNCc2ccc3cc(C(=O)NO)sc3c2)cc1)C(=O)OC1CCCC1 [Example 21, (S)-2-Acetylamino-5-(4-{[(2-hydroxycarbamoyl-benzo[b]thiophen-6-ylmethyl)-amino]-methyl}-phenoxy)-pentanoic acid cyclopentyl ester] | < 330 nM | – |
| 330 to 3300 nM | 330 to 3300 nM | 101 to 1000 nM | – | – | O=C(NO)c1cc2ccc(CNCc3ccc(OCCC[C@H](NC4CCCCC4)C(=O)OC4CCCC4)cc3)cc2s1 [Example 22, (S)-2-Cyclohexylamino-S-(4-{[(2-hydroxycarbamoyl-benzo[b]thiophen-6-ylmethyl)-amino]-methyl}-phenoxy)-pentanoic acid cyclopentyl ester] | 330 to 3300 nM | – |
| < 330 nM | 330 to 3300 nM | < 100 nM | – | – | N[C@H](C(=O)OC1CCCC1)c1ccc(Oc2ccc(CNCc3ccc4cc(C(=O)NO)sc4c3)cc2)cc1 [Example 24, (S)-Amino-[4-(4-{[(2-hydroxycarbamoyl-benzo[b]thiophen-6-ylmethyl)-amino]-methyl}-phenoxy)-phenyl]-acetic acid cyclopentyl ester] | < 330 nM | – |
| < 330 nM | 330 to 3300 nM | < 100 nM | – | – | N[C@@H](Cc1ccc(Oc2ccc(CNCc3ccc4cc(C(=O)NO)sc4c3)cc2)cc1)C(=O)OC1CCCC1 [Example 26, (S)-2-Amino-3-[4-(4-{[(2-hydroxycarbamoyl-benzo[b]thiophen-6-ylmethyl)-amino]-methyl}-phenoxy)-phenyl]-propionic acid cyclopentyl ester] | < 330 nM | – |
| < 330 nM | 330 to 3300 nM | < 100 nM | – | – | N[C@@H](CC1CCC(Oc2ccc(CNCc3ccc4cc(C(=O)NO)sc4c3)cc2)CC1)C(=O)OC1CCCC1 (stereo partly drawn) [Example 28, 2-(S)-Amino-3-[4-(4-{[(2-hydroxycarbamoyl-benzo[b]thiophen-6-ylmethyl)-amino]-methyl}-phenoxy)-cyclohexyl]-propionic acid cyclopentyl ester] | < 330 nM | – |
| < 330 nM | 330 to 3300 nM | < 100 nM | – | – | NC(C(=O)OC1CCCC1)C1CCC(Oc2ccc(CNCc3ccc4cc(C(=O)NO)sc4c3)cc2)CC1 (stereo not shown) [Example 30, Amino-[4-(4-{[(2-hydroxycarbamoyl-benzo[b]thiophen-6-ylmethyl)-amino]-methyl}-phenoxy)-cyclohexyl]-acetic acid cyclopentyl ester] | < 330 nM | – |
